Measurements published in ChEMBL document CHEMBL3098018, “Synthesis of licochalcone analogues with increased anti-inflammatory activity” (Bioorg Med Chem Lett, 2014).

Experiments:
RAW264.7 [1] = test: Cytotoxicity against mouse RAW264.7 cells assessed as cell viability at 20 uM after 24 hrs by MTS assay; assay type: cell-based; conditions: raw264.7, 24 h
RAW264.7 [2] = test: Antiinflammatory activity in mouse RAW264.7 cells assessed as inhibition of LPS-stimulated nitric oxide production at 2 uM after 18 hrs by Griess assay relative to control; assay type: functional; conditions: RAW264.7, 18 h
RAW264.7 [3] = test: Antiinflammatory activity in mouse RAW264.7 cells assessed as inhibition of LPS-stimulated nitric oxide production at 20 uM after 18 hrs by Griess assay relative to control; assay type: functional; conditions: RAW264.7, 18 h
RAW264.7 [4] = test: Antiinflammatory activity in mouse RAW264.7 cells assessed as inhibition of LPS-stimulated nitric oxide production after 18 hrs by Griess assay; assay type: functional, cell-based; conditions: RAW264.7, 18 h
RAW264.7 [5] = test: Cytotoxicity against mouse RAW264.7 cells assessed as cell viability at 20 uM after 24 hrs by MTS assay; conditions: raw264.7, 24 h
[6] = Antiinflammatory activity in RBL2H3 cells assessed as inhibition of degranulation; assay type: functional, cell-based; conditions: Rattus norvegicus, RBL-2H3

SMILES	Activity (RAW264.7 [1])	inhibition at 2 µM (RAW264.7 [2]) [%]	inhibition at 20 µM (RAW264.7 [3]) [%]	IC50 (RAW264.7 [4]) [µM]	Activity (RAW264.7 [5])	IC50 [6] [µM]
C=C(C)C(C)c1cc(C(=O)/C=C/c2ccc(O)c(O)c2OC)ccc1O (stereo not drawn)	Toxic	56.5	94.3	4.95	Toxic	–
COc1c(/C=C/C(=O)c2ccc(O)cc2)ccc(O)c1CC=C(C)C	–	–	–	–	–	24
COc1c(/C=C/C(=O)c2ccc(O)cc2O)ccc(O)c1O	Non-toxic	71.1	96.5	4.72	–	–
COc1c(/C=C/C(=O)c2ccc(O)c(O)c2)ccc(O)c1O	Non-toxic	-6	92.5	10.1	–	–
O=C(/C=C/c1ccc(O)cc1)c1ccc(O)cc1O [ISOLIQUIRITIGENIN]	–	–	–	–	–	> 30
C=CC(C)(C)c1cc(C(=O)/C=C/c2ccc(O)c(O)c2OC)ccc1O	Toxic	75.9	96.1	2.37	Toxic	–
COc1c(/C=C/C(=O)c2ccc(O)cc2)ccc(O)c1O	Non-toxic	17.2	69.6	9.94	–	> 30
C=CC(C)(C)c1cc(/C=C/C(=O)c2ccc(O)cc2)c(OC)cc1O [LICOAGROCHACONE A]	–	–	–	–	–	17
COc1c(/C=C/C(=O)c2ccc(O)c(CC=C(C)C)c2)ccc(O)c1O [LICOCHALCONE D]	Toxic	57.8	95.4	4.85	Toxic	21
COc1cc(O)ccc1/C=C/C(=O)c1ccc(O)cc1 [ECHINATIN]	–	–	–	–	–	> 30
